The values that follow come from patent publication US20230226065A1, “ANTI-INFLAMMATORY COMPOSITIONS, METHODS AND USES THEREOF” (COMVITA LIMITED, priority 2020, published 2023).

Series [1] relates to COX-2 protein expression in THP-1 cells. As to the kind of experiment: LPS-induced COX-2 protein expression in THP-1 cells (Western blot). The class given is cell-based, human. To be noted: for COX-2 Relative expression (mean ± SEM): LPS 24 hours, LPS positive control 1.26 ± 0.11, n=6. Here is the method: THP-1 cells were seeded in 12-well tissue-culture treated plates at a density of 500,000 cells/well in growth media overnight. […] Cells were washed with cold PBS and lysed in RIPA buffer containing protease inhibitors (Sigma P2714) for 15 minutes on ice. Debris was pelleted by centrifugation at 14,000×g for 15 min and lysate supernatants were frozen at −80° C. for later analysis by western blot.
Western blots for semi-quantitative COX-2 (Abcam ab188183) protein expression were conducted on THP-1 monocyte cells lysed with RIPA buffer containing protease inhibitors. A total of 10 μg protein was loaded onto precast 10% acrylamide gels (BioRad, NZ) then separated by electrophoresis at 120 V at room temperature. […] The membranes were then incubated with the primary antibody that correspond to the protein of interest for 1 h. […] Western blot images were captured with an Amersham™ Imager 600 (GE Healthcare, Chicago, Ill., USA) and densitometry measurement of protein bands was analysed with the accompanying image analysis software.
For analysis of Western blots, densitometry measurements from the proteins of interest were normalised to the densitometry of p-actin for each sample. […] The significance level was set at p≤0.05.

For series [2], the system named is inactive MMP-9 (pro-MMP-9). Description: Gelatin gel zymography, inactive MMP-9 band. The class given is biochemical. To be noted: inactive MMP-9 (~47 kDa band); densitometry vs no inhibitor; n=5. Here is the method:
Novex™ 10% Zymogram Plus (Gelatin) Protein Gels (15 wells) were purchased from Thermo Fisher Scientific Inc. (Auckland, New Zealand). All chemicals required for the zymogram analysis were also purchased from Thermo Fisher, these include Novex™ Sharp Pre-stained Protein Standard, Novex Tris-Glycine SDS sample buffer, Novex Tris-Glycine SDS running buffer, Novex Zymogram renaturing buffer and Novex Zymogram developing buffer. […] Gelatin gel zymography was performed as an independent technique to confirm the inhibition of MMP-9 from 3,6,7-trimethyllumazine. This technique uses a non-reducing SDS-PAGE (sodium dodecyl sulfate polyacrylamide gel electrophoresis) gel embedded with gelatin. Proteins are migrated and separated during electrophoresis. The SDS is removed after electrophoresis and the gel is then incubated with essential cofactors required for enzymatic activity. The embedded gelatin can be digested by MMP-9, resulting in clear bands on a dark blue background after staining with Coomassie blue dyes. The gelatinase activity is represented by band densitometry, which can be assessed with image analysis software. […]
After incubation, the gelatin gel was rinsed with water for three times (5 min each) under gentle agitation. […] MMP-9 activities were analysed using densitometry on ImageJ Version 1.52a. […]

Series [3] relates to differentiated THP-1 cells. Description: WST-1 cell viability, differentiated THP-1 cells. To be noted: for cell death: human. Type of series: cell-based. Here is the method: To measure cytotoxicity of 3,6,7-trimethyllumazine at different doses, 2-(4-Iodophenyl)-3-(4-nitrophenyl)-5-(2,4-disulfophenyl)-2H-tetrazolium, monosodium salt (WST-1) (Roche, 11644807001, Lot #45255800) was used. WST-1 is a cell proliferation reagent for measurement of cellular proliferation, viability, and cytotoxicity using a colorimetric assay (Gosert (2011); Peskin (2000)).
After incubation, a portion of the culture media was taken and stored for MMP-9 secretion testing using ELISA. The remaining media in the plates was then removed and 100 μl of WST-1 in RPMI-1640 media (1:10 dilution) was added to each cell well and incubated at 37° C. for a further 4 hours. The plates were then read using a plate reader at wavelength of 450 nm. Cytotoxicity was calculated as follows:
[WST-1 score for each sample/WST-1 score for the control]×100
A WST-1 score below 80% will be considered cytotoxic.
Background: Tetrazolium assays rely on reduction of a dye to a coloured formazan, in cell work by metabolically active cells.

For the compound `Cc1nc2[nH]c(=O)n(C)c(=O)c2nc1C` [3,6,7-trimethyllumazine], the “COX-2 Relative expression (mean ± SEM)” value is reported as 0.98 ± 0.05 in series [1] (12.5 μg/mL), 0.99 ± 0.07 in series [1] (25 μg/mL), 0.90 ± 0.09 in series [1] (50 μg/mL) and 0.96 ± 0.13 in series [1] (100 μg/mL). Further, the “reduction in COX-2 protein compared to the LPS treatment” value in series [1] (50 ug/mL) is given as “significant reduction”. In addition, the “reduction of COX-2 protein expression compared to LPS-stimulated cells” value in series [1] (all doses tested, 12.5-100 μg/mL) was 16-23%. Moreover, in series [2], the “percentage inhibition of gelatinase activity” value is on record as 17%. In addition, the “WST-1 score (cell viability)” value in series [3] (40 μg/mL, below 80% considered cytotoxic) was 79.8%. Moreover, the results for the cell death in series [3] (30 μg/mL) and in series [3] (40 μg/mL) were 13% and 20%, respectively.
